Source: patent publication US11098056B2, “UDP glycosyltransferase inhibitors and methods of use” (GENZYME CORPORATION, priority 2018, dated 2021)

Tests used:
UGT8 [1] = biological target: T1, UGT8 (Homo sapiens, UniProt Q16880); experiment: In vitro sulfatide (SFT) synthesis inhibition in OE19 cells, LC-MS/MS readout; type: cell-based; details: 72 hr, sulfatide by LC-MS/MS, read-out: Potency range (IC50, In-vitro SFT)
T1 construct: host or cells: OE19 cells
T1 sequence (Q16880 21-541): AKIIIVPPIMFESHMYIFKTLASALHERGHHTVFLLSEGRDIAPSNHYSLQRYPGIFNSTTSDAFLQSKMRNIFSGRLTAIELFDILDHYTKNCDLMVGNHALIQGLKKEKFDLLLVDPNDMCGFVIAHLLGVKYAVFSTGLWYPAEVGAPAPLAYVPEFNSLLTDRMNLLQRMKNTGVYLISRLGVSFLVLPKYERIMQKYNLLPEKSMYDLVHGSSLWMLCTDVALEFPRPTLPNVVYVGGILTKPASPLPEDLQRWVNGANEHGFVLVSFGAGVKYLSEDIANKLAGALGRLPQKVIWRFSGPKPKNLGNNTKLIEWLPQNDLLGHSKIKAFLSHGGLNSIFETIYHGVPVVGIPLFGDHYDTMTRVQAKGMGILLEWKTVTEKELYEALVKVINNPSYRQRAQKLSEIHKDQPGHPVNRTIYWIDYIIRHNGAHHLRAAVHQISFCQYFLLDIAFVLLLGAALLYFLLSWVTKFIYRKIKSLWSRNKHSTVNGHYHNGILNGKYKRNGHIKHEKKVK
Outline: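 OE19 cells, 2,500/well, exposed to compound dose-downs in triplicate for 72 hr at 37° C (screening at 10 μM final). Sulfatide quantified by LC-MS/MS (C8 UPLC, isocratic, negative-ion MRM) with C17 SFT internal standard; IC50 from concentration-response curves.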

UGT8 [2] = biological target: T2, UGT8 (Mus musculus, UniProt Q64676); experiment: Acute in vivo target engagement in mouse kidney: inhibition of de novo GalCer and SFT synthesis (13C-Gal incorporation); details: 5 hr
T2 construct: Groups of 5 male C57Bl/6 mice, 6-9 wks of age (Charles River Laboratories); tissue Charles River Laboratories; host or cells: mouse kidney (adult C57Bl/6) and mid-/hind brain (neonatal P14-P21 mice)
T2 sequence (Q64676 21-541): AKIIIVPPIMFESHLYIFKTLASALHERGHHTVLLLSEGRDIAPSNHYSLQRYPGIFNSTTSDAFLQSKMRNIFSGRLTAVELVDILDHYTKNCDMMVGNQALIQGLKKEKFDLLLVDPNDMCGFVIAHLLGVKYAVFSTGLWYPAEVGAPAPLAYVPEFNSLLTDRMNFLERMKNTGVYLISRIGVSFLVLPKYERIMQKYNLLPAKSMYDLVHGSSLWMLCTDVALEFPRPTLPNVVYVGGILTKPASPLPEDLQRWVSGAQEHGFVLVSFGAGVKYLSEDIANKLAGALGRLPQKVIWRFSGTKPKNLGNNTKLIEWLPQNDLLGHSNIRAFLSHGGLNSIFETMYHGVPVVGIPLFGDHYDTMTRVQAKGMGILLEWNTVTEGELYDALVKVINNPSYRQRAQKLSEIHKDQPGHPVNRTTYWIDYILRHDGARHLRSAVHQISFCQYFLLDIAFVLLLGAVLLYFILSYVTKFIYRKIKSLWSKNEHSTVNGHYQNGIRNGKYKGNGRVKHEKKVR
Experimental: In vivo target engagement was initially assessed in an adult mouse kidney model assessing de novo synthesis inhibition. This model was selected because the high rate of GalCer and SFT synthesis and turnover in kidney facilitated development of an acute one-day model assessing the effect of a single administration of compound at different doses. Inhibition of de novo synthesis was determined by measuring the amount of 13C6 galactose (13C-Gal; CIL, cat #CLM-1570-pk) incorporated into GalCer and SFT.
Groups of 5 male C57Bl/6 mice, 6-9 wks of age (Charles River Laboratories) were maintained in an ALAAC-accredited vivarium with food and water ad libitum and were allowed to acclimate one week before initiating studies. Three to 5 dose groups received test article formulated in a clinically-acceptable formulation, administered by oral gavage; the control group received vehicle alone. One hr after administration of test article, animals received an intraperitoneal (i.p.) injection of 13C-Gal (3 g/kg); 5 hr after administration of test article, animals were euthanized and a kidney was removed and divided into two longitudinal samples that were snap-frozen and stored at −80° C. until processing for test article tissue exposure and lipid analysis (GalCer and SFT). Typically, brain and plasma samples were also collected for test article exposure.
(§1) Mass Spectrometer Analysis of SFT
(§2) Quantitative analysis of sphingolipids (SLs) was performed using liquid chromatography with tandem mass spectrometry analysis (LC-MS/MS). Briefly, to extract glucosylceramide (GlcCer), galactosylceramide (GalCer), and sulfatide (ST), an aliquot of 10 μL of mouse tissue homogenate (100 mg/ml in water) was mixed with 1 mL of extraction solution (0.2% Formic Acid; 5 mM Ammonium formate in (50:50) Methanol:Acetonitrile (v/v) with internal standards (IS)). C17-ST and D35 labeled C18-GalCer were used for IS. The mixtures were vortexed and centrifuged. The resulting supernatants were transferred to HPLC vials for LC-MS/MS analysis. GlcCer and GalCer were separated using a Waters Acquity UPLC and Atlantis HILIC Silica column (2.1 mm×150 mm, […], Waters Corp., Milford, Mass.) and analyzed by an API 5000 triple quadrupole mass spectrometer in MRM mode (Applied Biosystems, Foster City, Calif.). ST were analyzed using a Waters Acquity UPLC and BEH C18 column (2.1 mm×50 mm, […], Waters Corp., Milford, Mass.) and analyzed by an API 6500 triple quadrupole mass spectrometer in MRM mode (Applied Biosystems, Foster City, Calif.).

UGT8 [3] = biological target: T2, UGT8; experiment: Acute in vivo target engagement in neonatal mouse brain: inhibition of de novo GalCer and SFT synthesis (13C-Gal incorporation); details: neonatal mouse (P14-P21) brain, 5 hr
Text: SFT biosynthesis and turnover in the myelin of adult mice is very low, necessitating development of a short-term acute model of de novo synthesis inhibition. To do this, we took advantage of the fact that unlike primates in which most developmental myelination occurs in utero, in rodents, peak myelination occurs between postnatal day 14 (P14) and P22.
Groups of 5 neonatal mice age-matched between P14 and P21 received test article formulated in a clinically-acceptable formulation, administered by oral gavage; the control group received vehicle alone. One hr after administration of test article, animals received an i.p. injection of 13C-Gal (3 g/kg); 5 hr after administration of test article, animals were euthanized, brains were removed and dissected for recovery of mid- and hind brain which was snap-frozen and stored at −80° C. until analysis. Plasma samples were also collected for test article exposure analysis.
as §1, §2

SMILES | IC50 (UGT8 [1]) [nM] | kidney GalCer % inh (UGT8 [2]; single oral dose 1 mg/kg) | kidney Sulfatide % inh (UGT8 [2]; single oral dose 1 mg/kg) | kidney GalCer % inh (UGT8 [2]; single oral dose 3 mg/kg) | kidney Sulfatide % inh (UGT8 [2]; single oral dose 3 mg/kg) | kidney GalCer % inh (UGT8 [2]; single oral dose 10 mg/kg) | kidney Sulfatide % inh (UGT8 [2]; single oral dose 10 mg/kg) | brain GalCer % inh (UGT8 [3]; single oral dose 3 mg/kg) | brain Sulfatide % inh (UGT8 [3]; single oral dose 3 mg/kg) | brain GalCer % inh (UGT8 [3]; single oral dose 10 mg/kg) | brain Sulfatide % inh (UGT8 [3]; single oral dose 10 mg/kg) | brain GalCer % inh (UGT8 [3]; single oral dose 30 mg/kg) | brain Sulfatide % inh (UGT8 [3]; single oral dose 30 mg/kg) | kidney GalCer % inh (UGT8 [2]; single oral dose 30 mg/kg) | kidney Sulfatide % inh (UGT8 [2]; single oral dose 30 mg/kg) | kidney GalCer % inh (UGT8 [2]; single oral dose 50 mg/kg) | brain GalCer % inh (UGT8 [3]; single oral dose 100 mg/kg) | brain Sulfatide % inh (UGT8 [3]; single oral dose 100 mg/kg) | other results
CNC(=O)c1csc2c(C(F)(F)F)cc(N3CCC(OC(=O)NC(C)C)CC3)nc12 [Example 76, 1-(3-(Methylcarbamoyl)-7-(trifluoromethyl)thieno[3,2-b]pyridin-5-yl)piperidin-4-yl isopropylcarbamate] | < 100 | C (C < 40%) | C (C < 40%) | B (40% < B < 80%) | B (40% < B < 80%) | B (40% < B < 80%) | B (40% < B < 80%) | B (40% < B < 80%) | B (40% < B < 80%) | A (A > 80%) | A (A > 80%) | A (A > 80%) | A (A > 80%) |  |  |  |  |  | 
CNC(=O)c1csc2c(C(F)(F)F)cc(O[C@@H]3CCN(C(=O)OCCOC(F)(F)F)[C@H](C)C3)nc12 [Example 375, 2-(Trifluoromethoxy)ethyl (2R,4R)-2-methyl-4-((3-(methylcarbamoyl)-7-(trifluoromethyl)thieno[3,2-b]pyridin-5-yl)oxy)piperidine-1-carboxylate] | < 100 | C (C < 40%) | C (C < 40%) | C (C < 40%) | C (C < 40%) | B (40% < B < 80%) | B (40% < B < 80%) | B (40% < B < 80%) | B (40% < B < 80%) | A (A > 80%) | A (A > 80%) |  |  | A (A > 80%) | A (A > 80%) |  |  |  | kidney GalCer % inh (UGT8 [2]; single oral dose 100 mg/kg): A (A > 80%); kidney Sulfatide % inh (UGT8 [2]; single oral dose 100 mg/kg): A (A > 80%); brain GalCer % inh (UGT8 [3]; single oral dose 1 mg/kg): B (40% < B < 80%); brain Sulfatide % inh (UGT8 [3]; single oral dose 1 mg/kg): B (40% < B < 80%)
CNC(=O)c1csc2c(C(F)(F)F)cc(N3CCC(OC(=O)N[C@@H](C)C4CC4)CC3)nc12 [Example 109, 1-(3-(Methylcarbamoyl)-7-(trifluoromethyl)thieno[3,2-b]pyridin-5-yl)piperidin-4-yl (S)-(1-cyclopropylethyl)carbamate] | < 100 |  |  |  |  | B (40% < B < 80%) |  |  |  | B, B, B (40% < B < 80%) | A, A, A (A > 80%) | B, B, B (40% < B < 80%) | A, A, A (A > 80%) |  |  | A (A > 80%) | B, B, B (40% < B < 80%) | A, A, A (A > 80%) | kidney GalCer % inh (UGT8 [2]; single oral dose 5 mg/kg): C (C < 40%)
CNC(=O)c1csc2c(C(F)(F)F)cc(N3CCC(OC(=O)NC4CC4)CC3)nc12 [Example 473, 1-(3-(Methylcarbamoyl)-7-(trifluoromethyl)thieno[3,2-b]pyridin-5-yl)piperidin-4-yl cyclopropylcarbamate] | < 100 |  |  | C (C < 40%) | C (C < 40%) | C (C < 40%) | B (40% < B < 80%) |  |  | A, A, A (A > 80%) | A, A, A (A > 80%) | A, A, A (A > 80%) | A, A, A (A > 80%) |  |  | B (40% < B < 80%) | A, A, A (A > 80%) | A, A, A (A > 80%) | kidney Sulfatide % inh (UGT8 [2]; single oral dose 50 mg/kg): A (A > 80%)
CNC(=O)c1csc2c(C(F)(F)F)cc(N3CCC(OC(=O)N[C@@H](C)COC(F)(F)F)CC3)nc12 [Example 90, 1-(3-(Methylcarbamoyl)-7-(trifluoromethyl)thieno[3,2-b]pyridin-5-yl)piperidin-4-yl (S)-(1-(trifluoromethoxy)propan-2-yl)carbamate] | < 100 | C (C < 40%) | B (40% < B < 80%) | A (A > 80%) | A (A > 80%) | A (A > 80%) | A (A > 80%) | A, A, A (A > 80%) | A, A, A (A > 80%) | A, A, A (A > 80%) | A, A, A (A > 80%) | A, A, A (A > 80%) | A, A, A (A > 80%) | A (A > 80%) | A (A > 80%) |  |  |  | kidney GalCer % inh (UGT8 [2]; single oral dose 0.3 mg/kg): C (C < 40%); kidney Sulfatide % inh (UGT8 [2]; single oral dose 0.3 mg/kg): C (C < 40%)
